The record followed here is patent US9663525B2, “Pyrazolopyrimidinyl inhibitors of ubiquitin-activating enzyme” (Millennium Pharmaceuticals, Inc., priority 2012, dated 2017).

The assay has as its target recombinant human UAE (Homo sapiens (Human), UniProt P22314). As to the kind of experiment: Ubiquitin Activating Enzyme (UAE) HTRF assay, human UAE.

Sequence of recombinant human UAE (P22314 whole entry): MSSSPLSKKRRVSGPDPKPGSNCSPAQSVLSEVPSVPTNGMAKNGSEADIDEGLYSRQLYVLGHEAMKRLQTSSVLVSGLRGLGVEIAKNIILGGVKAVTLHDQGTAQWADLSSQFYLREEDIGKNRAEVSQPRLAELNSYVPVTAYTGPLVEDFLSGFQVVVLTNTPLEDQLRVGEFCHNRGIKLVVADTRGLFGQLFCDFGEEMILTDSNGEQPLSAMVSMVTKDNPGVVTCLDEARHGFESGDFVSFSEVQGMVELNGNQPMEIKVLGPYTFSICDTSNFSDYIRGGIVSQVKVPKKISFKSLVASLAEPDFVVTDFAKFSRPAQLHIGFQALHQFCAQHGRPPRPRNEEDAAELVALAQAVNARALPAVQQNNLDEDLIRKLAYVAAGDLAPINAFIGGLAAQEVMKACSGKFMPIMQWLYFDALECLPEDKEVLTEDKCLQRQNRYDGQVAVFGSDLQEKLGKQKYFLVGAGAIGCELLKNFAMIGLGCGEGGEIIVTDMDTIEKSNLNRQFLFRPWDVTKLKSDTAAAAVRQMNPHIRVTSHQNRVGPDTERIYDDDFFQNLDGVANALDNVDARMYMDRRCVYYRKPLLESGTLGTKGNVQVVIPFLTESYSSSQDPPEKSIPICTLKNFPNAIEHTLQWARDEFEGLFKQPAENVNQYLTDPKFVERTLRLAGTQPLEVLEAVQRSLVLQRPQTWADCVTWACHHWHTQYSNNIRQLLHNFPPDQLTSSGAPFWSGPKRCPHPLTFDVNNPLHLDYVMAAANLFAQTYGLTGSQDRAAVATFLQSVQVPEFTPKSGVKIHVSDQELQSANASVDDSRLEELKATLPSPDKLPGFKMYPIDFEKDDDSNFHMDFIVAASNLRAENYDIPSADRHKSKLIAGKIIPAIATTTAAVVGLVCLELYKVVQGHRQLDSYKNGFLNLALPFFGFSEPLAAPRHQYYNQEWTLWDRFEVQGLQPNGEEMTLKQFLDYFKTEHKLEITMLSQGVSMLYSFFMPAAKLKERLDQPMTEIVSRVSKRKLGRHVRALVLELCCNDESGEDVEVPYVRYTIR
Experimental: After incubation for 120 minutes, quantification of the FRET is performed on the Pherostar (BMG).
For compounds whose values are marked with an asterisk (*), mouse UAE was used. For all other compounds, human UAE was used.

`Cc1sc(-c2ccccc2)nc1-c1cc2nccc(N[C@@H]3C[C@H](COS(N)(=O)=O)[C@@H](O)[C@H]3O)n2n1` (racemic) [Compound I-038, (rac)-[(1R,2R,3S,4R)-2,3-dihydroxy-4-{[2-(5-methyl-2-phenyl-1,3-thiazol-4-yl)pyrazolo[1,5-a]pyrimidin-7-yl]amino}cyclopentyl]methyl rel-sulfamate]: the IC50 is under 10 nM.
Consider `NS(=O)(=O)OC[C@H]1C[C@@H](Nc2ccnc3cc(-c4ccc5ccccc5n4)nn23)[C@H](O)[C@@H]1O` (racemic) [Compound I-042, (rac)-((1R,2R,3S,4R)-2,3-dihydroxy-4-(2-(quinolin-2-yl)pyrazolo[1,5-a]pyrimidin-7-ylamino)cyclopentyl)methyl rel-sulfamate], for which the IC50 is under 10 nM.
On the same count and under the same terms, the same measure for `NS(=O)(=O)OC[C@H]1C[C@@H](Nc2ccnc3cc(-c4ccc5cccnc5c4)nn23)[C@H](O)[C@@H]1O` (racemic) [Compound I-043, (rac)-((1R,2R,3S,4R)-2,3-dihydroxy-4-(2-(quinolin-7-yl)pyrazolo[1,5-a]pyrimidin-7-ylamino)cyclopentyl)methyl rel-sulfamate]: under 10 nM.
`NS(=O)(=O)OC[C@H]1C[C@@H](Nc2ccnc3cc(-c4cccc5ccsc45)nn23)[C@H](O)[C@@H]1O` (racemic) [Compound I-045, (rac)-((1R,2R,3S,4R)-4-((2-(Benzo[b]thiophen-7-yl)pyrazolo[1,5-a]pyrimidin-7-yl)amino)-2,3-dihydroxycyclopentyl)methyl rel-sulfamate]: the half-maximal inhibitory concentration (IC50) is under 10 nM.
In the case of `NS(=O)(=O)OC[C@H]1C[C@@H](Nc2ccnc3cc(-c4coc5ccccc45)nn23)[C@H](O)[C@@H]1O` (racemic) [Compound I-049, (rac)-((1R,2R,3S,4R)-4-(2-(benzofuran-3-yl)pyrazolo[1,5-a]pyrimidin-7-ylamino)-2,3-dihydroxycyclopentyl)methyl rel-sulfamate], the IC50 is under 10 nM.
On the same count and under the same terms, next, `NS(=O)(=O)OC[C@H]1C[C@@H](Nc2ccnc3cc(-c4cccc(OC(F)F)c4)nn23)[C@H](O)[C@@H]1O` (racemic) [Compound I-050, (rac)-((1R,2R,3S,4R)-4-((2-(3-(Difluoromethoxy)phenyl)pyrazolo[1,5-a-]pyrimidin-7-yl)amino)-2,3-dihydroxycyclopentyl)methyl rel-sulfamate]: under 10 nM.
On the same count and under the same terms, next, `NS(=O)(=O)OC[C@H]1C[C@@H](Nc2ccnc3cc(-c4cccc(Oc5ccccc5)c4)nn23)[C@H](O)[C@@H]1O` (racemic) [Compound I-051, (rac)-((1R,2R,3S,4R)-2,3-Dihydroxy-4-((2-(3-phenoxyphenyl)pyrazolo[1,5-a]pyrimidin-7-yl)amino)cyclopentyl)methyl rel-sulfamate]: 10 to 100 nM; `CC(C)(C)c1cccc(-c2cc3nccc(N[C@@H]4C[C@H](COS(N)(=O)=O)[C@@H](O)[C@H]4O)n3n2)n1` (racemic) [Compound I-052, (rac)-((1R,2R,3S,4R)-4-(2-(6-tert-butylpyridin-2-yl)pyrazolo[1,5-a]pyrimidin-7-ylamino)-2,3-dihydroxycyclopentyl)methyl rel-sulfamate]: under 10 nM; `NS(=O)(=O)OC[C@H]1C[C@@H](Nc2ccnc3cc(-c4c[nH]c5ccc(Cl)cc45)nn23)[C@H](O)[C@@H]1O` (racemic) [Compound I-054, (rac)-[(1R,2R,3S,4R)-4-{[2-(5-chloro-1H-indol-3-yl)pyrazolo[1,5-a]pyrimidin-7-yl]amino}-2,3-dihydroxycyclopentyl]methyl rel-sulfamate]: under 10 nM.
For `NS(=O)(=O)OC[C@H]1C[C@@H](Nc2ccnc3cc(-c4c[nH]c5cc(Cl)ccc45)nn23)[C@H](O)[C@@H]1O` (racemic) [Compound I-055, (rac)-[(1R,2R,3S,4R)-4-{[2-(6-chloro-1H-indol-3-yl)pyrazolo[1,5-a]pyrimidin-7-yl]amino}-2,3-dihydroxycyclopentyl]methyl rel-sulfamate], the concentration for half-maximal inhibition (IC50) was under 10 nM.
Turning to `NS(=O)(=O)OC[C@H]1C[C@@H](Nc2ccnc3cc(-c4cccc5c4sc4ccccc45)nn23)[C@H](O)[C@@H]1O` (racemic) [Compound I-056, (rac)-((1R,2R,3S,4R)-4-((2-(Dibenzo[b,d]thiophen-4-yl)pyrazolo[1,5-a]pyrimidin-7-yl)amino)-2,3-dihydroxycyclopentyl)methyl rel-sulfamate], the IC50 is under 10 nM.
The same measure, in the same setting: next, `NS(=O)(=O)OC[C@H]1C[C@@H](Nc2ccnc3cc(-c4cc(Cl)ccc4OC(F)(F)F)nn23)[C@H](O)[C@@H]1O` (racemic) [Compound I-057, (rac)-((1R,2R,3S,4R)-4-(2-(5-chloro-2-(trifluoromethoxy)phenyl)pyrazolo[1,5-a]pyrimidin-7-ylamino)-2,3-dihydroxycyclopentyl)methyl rel-sulfamate]: under 10 nM; `CC(C)(c1cccc(-c2cc3nccc(N[C@@H]4C[C@H](COS(N)(=O)=O)[C@@H](O)[C@H]4O)n3n2)c1)C(F)(F)F` (racemic) [Compound I-058, (rac)-((1R,2R,3S,4R)-2,3-dihydroxy-4-(2-(3-(1,1,1-trifluoro-2-methylpropan-2-yl)phenyl)pyrazolo[1,5-a]pyrimidin-7-ylamino)cyclopentyl)methyl rel-sulfamate]: under 10 nM; `NS(=O)(=O)OC[C@H]1C[C@@H](Nc2ccnc3cc(-c4ccnc(C(F)(F)F)c4)nn23)[C@H](O)[C@@H]1O` (racemic) [Compound I-059, (rac)-((1R,2R,3S,4R)-2,3-dihydroxy-4-(2-(2-(trifluoromethyl)pyridin-4-yl)pyrazolo[1,5-a]pyrimidin-7-ylamino)cyclopentyl)methyl rel-sulfamate]: 10 to 100 nM.
Same read-out and setting: next, `NS(=O)(=O)OC[C@H]1C[C@@H](Nc2ccnc3cc(-c4ccc(C(F)(F)F)s4)nn23)[C@H](O)[C@@H]1O` (racemic) [Compound I-060, (rac)-((1R,2R,3S,4R)-2,3-Dihydroxy-4-((2-(5-(trifluoromethyl)thiophen-2-yl)pyrazolo[1,5-a]pyrimidin-7-yl)amino)cyclopentyl)methyl rel-sulfamate]: 10 to 100 nM; `NS(=O)(=O)OC[C@H]1C[C@@H](Nc2ccnc3cc(-c4cccc5sccc45)nn23)[C@H](O)[C@@H]1O` (racemic) [Compound I-061, (rac)-((1R,2R,3S,4R)-4-((2-(Benzo[b]thiophen-4-yl)pyrazolo[1,5-a]pyrimidin-7-yl)amino)-2,3-dihydroxycyclopentyl)methyl rel-sulfamate]: under 10 nM; `NS(=O)(=O)OC[C@H]1C[C@@H](Nc2ccnc3cc(-c4ccc5c(c4)[nH]c4ccccc45)nn23)[C@H](O)[C@@H]1O` (racemic) [Compound I-062, (rac)-[(1R,2R,3S,4R)-4-{[2-(9H-carbazol-2-yl)pyrazolo[1,5-a]pyrimidin-7-yl]amino}-2,3-dihydroxycyclopentyl]methyl rel-sulfamate]: under 10 nM.
Consider `COc1ccc(C(C)(C)C)cc1-c1cc2nccc(N[C@@H]3C[C@H](COS(N)(=O)=O)[C@@H](O)[C@H]3O)n2n1` (racemic) [Compound I-063, (rac)-((1R,2R,3S,4R)-4-{[2-(5-tert-butyl-2-methoxyphenyl)pyrazolo[1,5-a]pyrimidin-7-yl]amino}-2,3-dihydroxycyclopentyl)methyl rel-sulfamate], for which the “% inhibition @0.111 μM” value (0.111 μM compound, human UAE) is recorded as 100%.
Take `NS(=O)(=O)OC[C@H]1C[C@@H](Nc2ccnc3cc(-c4cccc(C(F)(F)F)n4)nn23)[C@H](O)[C@@H]1O` (racemic) [Compound I-064, (rac)-((1R,2R,3S,4R)-2,3-dihydroxy-4-(2-(6-(trifluoromethyl)pyridin-2-yl)pyrazolo[1,5-a]pyrimidin-7-ylamino)cyclopentyl)methyl rel-sulfamate]: the 50% inhibitory concentration (IC50) lay in the range of 10 to 100 nM.
For the compound `COc1ccc(C(F)(F)F)cc1-c1cc2nccc(N[C@@H]3C[C@H](COS(N)(=O)=O)[C@@H](O)[C@H]3O)n2n1` (racemic) [Compound I-065, (rac)-((1R,2R,3S,4R)-2,3-Dihydroxy-4-((2-(2-methoxy-5-(trifluoromethyl)phenyl)-pyrazolo[1,5-a]pyrimidin-7-yl)amino)cyclopentyl)methyl rel-sulfamate], the IC50 was under 10 nM.
Turning to `COc1ccc(OC(F)(F)F)cc1-c1cc2nccc(N[C@@H]3C[C@H](COS(N)(=O)=O)[C@@H](O)[C@H]3O)n2n1` (racemic) [Compound I-066, (rac)-((1R,2R,3S,4R)-2,3-Dihydroxy-4-((2-(2-methoxy-5-(trifluoromethoxy)-phenyl)pyrazolo[1,5-a]pyrimidin-7-yl)amino)cyclopentyl)methyl rel-sulfamate], the IC50 is under 10 nM.
Turning to `NS(=O)(=O)OC[C@H]1C[C@@H](Nc2ccnc3cc(-c4ccccc4Oc4ccccc4)nn23)[C@H](O)[C@@H]1O` (racemic) [Compound I-068, (rac)-((1R,2R,3S,4R)-2,3-dihydroxy-4-(2-(2-phenoxyphenyl)pyrazolo[1,5-a]pyrimidin-7-ylamino)cyclopentyl)methyl rel-sulfamate], the IC50 lay within 10 to 100 nM.
For the compound `NS(=O)(=O)OC[C@H]1C[C@@H](Nc2ccnc3cc(-c4cccc(Cc5ccccc5)c4)nn23)[C@H](O)[C@@H]1O` (racemic) [Compound I-069, (rac)-((1R,2R,3S,4R)-4-(2-(3-benzylpenyl)pyrazolo[1,5-a]pyrimidin-7-ylamino)-2,3-dihydroxycyclopentyl)methyl rel-sulfamate], the half-inhibitory concentration (IC50) was 10 to 100 nM.
On the same count and under the same terms, next, `COc1cc(F)ccc1-c1cc2nccc(N[C@@H]3C[C@H](COS(N)(=O)=O)[C@@H](O)[C@H]3O)n2n1` (racemic) [Compound I-070, (rac)-((1R,2R,3S,4R)-4-(2-(4-fluoro-2-methoxyphenyl)pyrazolo[1,5-a]pyrimidin-7-ylamino)-2,3-dihydroxycyclopentyl)methyl rel-sulfamate]: under 10 nM; `NS(=O)(=O)OC[C@H]1C[C@@H](Nc2ccnc3cc(-c4csc5ccc(Cl)cc45)nn23)[C@H](O)[C@@H]1O` (racemic) [Compound I-071, (rac)-((1R,2R,3S,4R)-4-(2-(5-chlorobenzo[b]thiophen-3-yl)pyrazolo[1,5-a]pyrimidin-7-ylamino)-2,3-dihydroxycyclopentyl)methyl rel-sulfamate]: under 10 nM.
